Laboratory results from PubChem BioAssay AID256 (DTP/NCI, 2004).
Where “and” joins values, the source holds several entries; their conditions need not be identical. Equal entries are not always repeated. Inconclusive results and toxic doses are left out.

System: CD2F1 mice, L1210 leukemia ip, survival T/C
Assay: NCI In Vivo Anticancer Drug Screen. Data for tumor model L1210 Leukemia (intraperitoneal) in CD2F1 (CDF1) mice
Conditions: higher = longer survival
Summary of the method: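 Transplantable tumor in mice; compound-treated vs vehicle-treated groups. Read-out = treated/control ratio of the measured endpoint.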

[1] = endpoint: mean survival time, dose: 100.0 mg/kg/injection, schedule: Q04DX003 (ip), vehicle: saline with Tween-80
[2] = endpoint: mean survival time, dose: 200.0 mg/kg/injection, schedule: Q04DX003 (ip), vehicle: saline with Tween-80

In the case of `COC1=CC(=O)C2(C)CC=CCC2C1` (configuration not stated), the T/C (endpoint: mean survival time, dose: 100.0 mg/kg/injection, schedule: Q01DX009 (ip), vehicle: saline with Tween-80) is reported as 98 % of control, the T/C [1] is reported as 92 % of control and the T/C (endpoint: mean survival time, dose: 200.0 mg/kg/injection, schedule: Q01DX009 (ip), vehicle: saline with Tween-80) is reported as 95 % of control. The T/C [2] was 103 % of control, the T/C (endpoint: mean survival time, dose: 400.0 mg/kg/injection, schedule: Q01DX009 (ip), vehicle: saline with Tween-80) was 95 % of control and the T/C (endpoint: mean survival time, dose: 400.0 mg/kg/injection, schedule: Q04DX003 (ip), vehicle: saline with Tween-80) was 91 % of control.

With `O=S(=O)(O)c1ccccc1N=Nc1c(S(=O)(=O)O)cc2cc(S(=O)(=O)O)c(N=Nc3ccccc3S(=O)(=O)O)c(O)c2c1O` the T/C [1] was 97 % of control and the T/C [2] was 100 % of control.

`[Cl][Pt+2][Cl].[NH-]C1CCC1.[NH2-]` was tested, and the T/C (endpoint: mean survival time, dose: 0.39 mg/kg/injection, schedule: Q04DX003 (ip), vehicle: saline) was 98 % of control, the T/C (endpoint: mean survival time, dose: 0.78 mg/kg/injection, schedule: Q04DX003 (ip), vehicle: saline) was 100 % of control and the T/C (endpoint: mean survival time, dose: 1.56 mg/kg/injection, schedule: Q04DX003 (ip), vehicle: saline) was 120 % of control. The T/C (endpoint: mean survival time, dose: 3.12 mg/kg/injection, schedule: Q04DX003 (ip), vehicle: distilled water + Tween-80) was 110 % of control, the T/C (endpoint: mean survival time, dose: 3.12 mg/kg/injection, schedule: Q04DX003 (ip), vehicle: water) was 200 % of control and the T/C (endpoint: mean survival time, dose: 6.25 mg/kg/injection, schedule: Q04DX003 (ip), vehicle: distilled water + Tween-80) was 86 % of control. The T/C (endpoint: mean survival time, dose: 6.25 mg/kg/injection, schedule: Q04DX003 (ip), vehicle: saline) was 168 % of control, the T/C (endpoint: mean survival time, dose: 6.25 mg/kg/injection, schedule: Q04DX003 (ip), vehicle: water) was 111 % of control and the T/C (endpoint: median survival time, dose: 0.38 mg/kg/injection, schedule: Q01DX009 (ip), vehicle: saline) was 122 % of control. For the same compound, the T/C (endpoint: median survival time, dose: 1.5 mg/kg/injection, schedule: Q01DX009 (ip), vehicle: saline) was 156 % of control and 172 % of control, the T/C (endpoint: median survival time, dose: 3.0 mg/kg/injection, schedule: Q01DX009 (ip), vehicle: saline) was 184 % of control and 213 % of control and the T/C (endpoint: median survival time, dose: 3.0 mg/kg/injection, schedule: Q01DX009 (ip), vehicle: suspension in saline) was 314 % of control. For the same compound, the T/C (endpoint: median survival time, dose: 6.0 mg/kg/injection, schedule: Q01DX009 (ip), vehicle: saline) was 116 % of control and 123 % of control and the T/C (endpoint: median survival time, dose: 12.0 mg/kg/injection, schedule: Q01DX009 (ip), vehicle: suspension in saline) was 111 % of control.

`Cn1c(=O)ccc2ccccc21` was tested, and the T/C (endpoint: mean survival time, dose: 100.0 mg/kg/injection, schedule: Q04DX002 (ip), vehicle: saline with Tween-80) was 101 % of control and the T/C (endpoint: mean survival time, dose: 200.0 mg/kg/injection, schedule: Q04DX002 (ip), vehicle: saline with Tween-80) was 87 % of control.

For `O=S(CCCl)CCCl`, the T/C (endpoint: mean survival time, dose: 0.5 mg/kg/injection, schedule: Q01DX009 (ip), vehicle: Klucel (hydroxypropylcellulose) (HPC)) was 93 % of control, the T/C (endpoint: mean survival time, dose: 0.5 mg/kg/injection, schedule: Q04DX003 (ip), vehicle: Klucel (hydroxypropylcellulose) (HPC)) was 98 % of control and the T/C (endpoint: mean survival time, dose: 1.0 mg/kg/injection, schedule: Q01DX009 (ip), vehicle: Klucel (hydroxypropylcellulose) (HPC)) was 101 % of control. For the same compound, the T/C (endpoint: mean survival time, dose: 1.0 mg/kg/injection, schedule: Q04DX003 (ip), vehicle: Klucel (hydroxypropylcellulose) (HPC)) was 100 % of control, the T/C (endpoint: mean survival time, dose: 1.56 mg/kg/injection, schedule: Q01DX009 (ip), vehicle: Klucel (hydroxypropylcellulose) (HPC)) was 109 % of control and the T/C (endpoint: mean survival time, dose: 2.0 mg/kg/injection, schedule: Q01DX009 (ip), vehicle: Klucel (hydroxypropylcellulose) (HPC)) was 96 % of control. For the same compound, the T/C (endpoint: mean survival time, dose: 2.0 mg/kg/injection, schedule: Q04DX003 (ip), vehicle: Klucel (hydroxypropylcellulose) (HPC)) was 98 % of control, the T/C (endpoint: mean survival time, dose: 3.12 mg/kg/injection, schedule: Q01DX009 (ip), vehicle: Klucel (hydroxypropylcellulose) (HPC)) was 100 % of control and the T/C (endpoint: mean survival time, dose: 4.0 mg/kg/injection, schedule: Q01DX009 (ip), vehicle: Klucel (hydroxypropylcellulose) (HPC)) was 106 % of control. The T/C (endpoint: mean survival time, dose: 4.0 mg/kg/injection, schedule: Q04DX003 (ip), vehicle: Klucel (hydroxypropylcellulose) (HPC)) was 102 % of control, the T/C (endpoint: mean survival time, dose: 6.25 mg/kg/injection, schedule: Q01DX009 (ip), vehicle: Klucel (hydroxypropylcellulose) (HPC)) was 104 % of control and the T/C (endpoint: mean survival time, dose: 8.0 mg/kg/injection, schedule: Q01DX009 (ip), vehicle: Klucel (hydroxypropylcellulose) (HPC)) was 100 % of control. The T/C (endpoint: mean survival time, dose: 8.0 mg/kg/injection, schedule: Q04DX003 (ip), vehicle: Klucel (hydroxypropylcellulose) (HPC)) was 98 % of control, the T/C (endpoint: mean survival time, dose: 12.5 mg/kg/injection, schedule: Q01DX009 (ip), vehicle: Klucel (hydroxypropylcellulose) (HPC)) was 102 % of control and the T/C (endpoint: mean survival time, dose: 16.0 mg/kg/injection, schedule: Q01DX009 (ip), vehicle: Klucel (hydroxypropylcellulose) (HPC)) was 100 % of control. For the same compound, the T/C (endpoint: mean survival time, dose: 16.0 mg/kg/injection, schedule: Q04DX003 (ip), vehicle: Klucel (hydroxypropylcellulose) (HPC)) was 100 % of control, the T/C (endpoint: mean survival time, dose: 25.0 mg/kg/injection, schedule: Q01DX009 (ip), vehicle: Klucel (hydroxypropylcellulose) (HPC)) was 103 % of control and the T/C (endpoint: mean survival time, dose: 32.0 mg/kg/injection, schedule: Q04DX003 (ip), vehicle: Klucel (hydroxypropylcellulose) (HPC)) was 106 % of control.
